{"source": "patent US20060134144A1", "about": "“Mucoadhesive composition and formulation for solubilization of insoluble drugs and preparation method thereof” (priority 2002, published 2006)", "assay": "Dispersion behaviour on mixing with water", "assay_type": "physicochemical", "settings": "mixed with water", "protocol": "The size of the emulsion particles were measured by using Malvern Zetasizer (Malvern Instruments Limited, England) after preparing the emulsion by adding 3 mL of distilled water to 2 μL of thus obtained liquid formulation. An average particle size and polydispersity were obtained by measuring values for a given formulation three times (Orr, Encyclopedia of emulsion technology, 1, 369-404, 1985). The polydispersity was obtained as the variance indicated by the logarithmic scale in the logarithmic normal distribution function. The above method in measuring the particle size and the polydispersity was used throughout the following examples.\nThe above composition exists as semi-solid or solid at room temperature and in a refrigerator, respectively, but as liquid at or above 40° C. Dispersion with the average particle size of 530 nm was obtained when the above composition was vortexed for 10 s in water. The absorbance at 400 nm was 2.36.\nMonoolein (99.5% purity) from Nu-Chek Prep (Elysian, Minn., USA) or Myverol 18-99K (monoolein content 86.6 weight %) from Danisco A/S (Copenhagen, Denmark) were mixed with water. […] Since the cubic phase had very high viscosity and floated in water, the particle size or absorbance could not be determined.", "data": [{"smiles": "CCCCCCCC/C=C\\CCCCCCCC(=O)OCC(O)CO", "note": "(stereo not shown) [Monoolein (99.5% purity), Monoolein]", "values": [{"measurement": "dispersion behaviour in water", "result": "Cubic phases were formed instead of dispersion"}]}]}
